According to patent publication US20180148446A1, “PYRROLO [2,3-c] PYRIDINE COMPOUND, PROCESS FOR PRODUCING THE SAME, AND USE” (Takeda Pharmaceutical Company Limited, priority 2004, published 2018):

Each molecule was assayed against T1, H^+/K^+-ATPase (Sus scrofa, UniProt P19156) (assay: Proton, potassium-adenosine triphosphatase (H+/K+-ATPase) inhibitory activity test). Conditions: pig stomach mucous membrane microsome fraction; pH 6.5, 37° C.; malachite green colorimetry at 610 nm; read-out: IC50 (50% inhibitory concentration of proton and potassium-adenosine triphosphatase).
T1 construct: The obtained microsome fraction was used as the H^+/K^+-ATPase standard product; from tissue; host or cells: pig stomach (corpus ventriculi) mucous membrane microsome fraction
Assay type: biochemical
Experimental: Proton, Potassium-Adenosine Triphosphatase (H^+/K^+-ATPase) Inhibitory Activity Test
According to the method of Wallmark et al. [Biochem. Biophys. Acta., 728, 31 (1983)], a stomach mucous membrane microsome fraction was prepared from the stomach of a pig. First, the corpus ventriculi was isolated, washed with tap water, immersed in 3M brine, and the surface of the mucous membrane was wiped with a paper towel. The stomach mucous membrane was separated, chopped, and homogenized using polytron (Kinematica) in 0.25 M saccharose solution (pH 6.8) containing 1 mM EDTA and 10 mM tris hydrochloric acid. The obtained homogenate was centrifuged at 20,000×g for 30 min, and the supernatant was centrifuged at 100,000×g for 90 min. After suspending the precipitated part in a 0.25 M saccharose solution, layered on a 0.25 M saccharose solution containing 7.5% Ficoll, and centrifuged at 100,000×g for 5 hr. The fraction of the interface between the both layers was collected and washed by centrifugation with a 0.25 M saccharose solution.
The obtained microsome fraction was used as the H^+/K^+-ATPase standard product.
A test compound (5 μL) dissolved in a 10% aqueous dimethyl sulfoxide solution was added to 40 μL of a 50 mM Hepes-tris buffer (5 mM magnesium chloride, 10 mM potassium chloride, 10 μM valinomycin, pH=6.5) containing 2.5 μg/mL (based on the protein concentration) of an enzyme standard product, and the mixture was incubated at 37° C. for 30 min. The enzyme reaction was started by the addition of 5 μL of a 2 mM adenosine triphosphate tris salt solution (50 mM Hepes-tris buffer (5 mM magnesium chloride, pH 6.5)). The enzyme reaction was carried out at 37° C. for 20 min, and quenched by adding 15 μL of malachite green solution (a mixture of 0.12% malachite green sulfuric acid (5N) solution, 7.5% ammonium molybdate and 11% Tween 20 at a ratio of 100:25:2). The mixture was stood at room temperature for 15 min, and the resulting reaction product of inorganic phosphorus and malachite green was colorimetrically determined at a wavelength of 610 nm. The amount of inorganic phosphoric acid in a reaction solution free of potassium chloride was measured in the same manner. The H^+/K^+-ATPase activity was measured by subtracting the obtained amount from the amount of inorganic phosphoric acid in the presence of potassium chloride. The inhibitory rate (%) was determined from the control activity value and the activity value at each concentration of the test compound, and 50% inhibitory concentration (IC50) of proton and potassium-adenosine triphosphatase was determined.

T1 sequence (P19156 2-1034 limits assumed): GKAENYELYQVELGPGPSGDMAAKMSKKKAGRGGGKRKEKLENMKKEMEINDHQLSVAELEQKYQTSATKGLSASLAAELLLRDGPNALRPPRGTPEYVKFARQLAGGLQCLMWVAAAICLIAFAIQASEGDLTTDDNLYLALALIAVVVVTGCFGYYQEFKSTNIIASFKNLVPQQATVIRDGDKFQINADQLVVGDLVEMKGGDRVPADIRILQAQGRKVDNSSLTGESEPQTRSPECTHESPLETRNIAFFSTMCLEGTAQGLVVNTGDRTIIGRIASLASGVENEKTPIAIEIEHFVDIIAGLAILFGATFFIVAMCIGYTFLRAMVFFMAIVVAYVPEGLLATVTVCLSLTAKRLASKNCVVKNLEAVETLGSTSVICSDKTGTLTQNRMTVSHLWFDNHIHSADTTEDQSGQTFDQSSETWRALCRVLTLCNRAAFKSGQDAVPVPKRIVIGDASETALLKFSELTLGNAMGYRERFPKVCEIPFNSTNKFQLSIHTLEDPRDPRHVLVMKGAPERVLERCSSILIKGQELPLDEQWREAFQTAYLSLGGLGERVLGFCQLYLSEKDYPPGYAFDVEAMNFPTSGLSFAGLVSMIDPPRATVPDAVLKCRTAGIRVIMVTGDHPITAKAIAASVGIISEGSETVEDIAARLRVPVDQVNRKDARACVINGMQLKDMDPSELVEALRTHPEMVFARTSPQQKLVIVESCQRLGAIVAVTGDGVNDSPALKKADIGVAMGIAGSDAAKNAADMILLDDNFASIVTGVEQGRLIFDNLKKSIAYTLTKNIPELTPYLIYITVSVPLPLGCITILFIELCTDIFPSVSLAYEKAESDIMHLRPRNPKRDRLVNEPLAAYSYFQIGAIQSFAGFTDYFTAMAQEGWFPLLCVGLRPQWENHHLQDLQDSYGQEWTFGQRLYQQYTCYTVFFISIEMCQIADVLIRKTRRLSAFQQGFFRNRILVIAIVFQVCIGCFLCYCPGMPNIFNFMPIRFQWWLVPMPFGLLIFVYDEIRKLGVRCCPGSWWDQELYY
T1 sequence (P18434 whole entry partner): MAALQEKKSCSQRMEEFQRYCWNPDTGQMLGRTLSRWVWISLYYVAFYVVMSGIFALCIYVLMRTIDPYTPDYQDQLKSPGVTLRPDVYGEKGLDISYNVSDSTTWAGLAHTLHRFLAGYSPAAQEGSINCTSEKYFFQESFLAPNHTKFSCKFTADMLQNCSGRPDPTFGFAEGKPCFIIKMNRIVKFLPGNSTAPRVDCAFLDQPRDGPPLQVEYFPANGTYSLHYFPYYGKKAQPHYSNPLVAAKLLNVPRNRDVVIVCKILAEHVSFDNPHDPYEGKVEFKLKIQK

IC50 [nM] | SMILES
980 | CCCn1c(C)cc2ccnc(NCc3ccccc3)c21 [Example 2, N-benzyl-2-methyl-1-propyl-1H-pyrrolo[2,3-c]pyridine-7-amine]
1200 | Cc1cc2ccnc(NCc3ccccc3)c2n1CC1CC1 [Example 5, N-benzyl-1-(cyclopropylmethyl)-2-methyl-1H-pyrrolo[2,3-c]pyridine-7-amine]
27 | Cc1[nH]c2c(NCc3ccccc3)nccc2c1C [Example 12, N-benzyl-2,3-dimethyl-1H-pyrrolo[2,3-c]pyridine-7-amine]
14 | Cc1cccc(C)c1CNc1nccc2c(C)c(C)[nH]c12 [Example 14, N-(2,6-dimethylbenzyl)-2,3-dimethyl-1H-pyrrolo[2,3-c]pyridine-7-amine]
9.8 | Cc1[nH]c2c(NC3CCc4ccccc43)nccc2c1C (centres unmarked) [Example 16, N-(2,3-dihydro-1H-inden-1-yl)-2,3-dimethyl-1H-pyrrolo[2,3-c]pyridine-7-amine]
24 | CCCn1c(C)c(C)c2ccnc(NCc3ccc(F)cc3C)c21 [Example 26, N-(4-fluoro-2-methylbenzyl)-2,3-dimethyl-1-propyl-1H-pyrrolo[2,3-c]pyridine-7-amine]
3.2 | Cc1cc(F)ccc1CNc1nccc2c(CO)c(C)n(CC(C)C)c12 [Example 65, {7-[(4-fluoro-2-methylbenzyl)amino]-1-isobutyl-2-methyl-1H-pyrrolo[2,3-c]pyridin-3-yl}methanol]
1800 | Cc1[nH]c2c(NC(=O)c3ccccc3)nccc2c1C [Example 74, N-[7-(2,3-dimethyl-1H-pyrrolo[2,3-c]pyridyl)]benzamide]
